Series [1] addresses T1, hERG channels (Homo sapiens, UniProt Q12809).
T1 construct: expressed in transfected cells
The experiment in a line: Herg-Rb two phase screen (rubidium efflux). In kind it is cell-based. The note with it: CHO cells expressing hERG, relative to complete block with 10 μM dofetilide; for herg-Rb 1.5 μg/mL (%): test article at 1.5 μg/ml; for herg-Rb 5 μg/mL (%): test article at 5 μg/ml. The procedure: Herg-Rb data (μg/mL) (%) was determined by the following two phase screen. The first phase is a cell-handling phase in which cells are loaded with rubidium, drugs are added and efflux initiated by KCl-depolarization. The second phase is measurement of rubidium content in cell supernatants that are collected at the end of the cell-handling phase. CHO cells expressing hERG in a stable manner are used for these studies. Cells are plated into 96-well dishes one day prior to study. After overnight culture, the normal tissue culture medium is removed and cells are loaded with rubidium for 3 hours in a HEPES-buffered physiological saline solution containing 5 mM rubidium chloride in place of potassium chloride. During the final 30 minutes of rubidium loading cells are pre-equilibrated with test articles at 1.5 μg/ml and 5 μg/ml. Cells are then washed with rubidium-free HEPES buffered physiological saline solution containing 5 mM KCl to remove all extracellular rubidium. The final step of the cell handling phase is to depolarize the cells in HEPES buffered physiological saline containing 50 mM KCl. This opens hERG channels and permits efflux of rubidium. Supernatants are collected after 5 minutes and rubidium content is measured using a flame atomic absorbance spectrometer with a robot for sampling from 96-well plates (ICR-8000, Aurora Biomed Inc., Vancouver, British Columbia). In cases where the channel is blocked the amount of rubidium efflux is reduced. Drug effects are calculated based on the difference between wells with no added compound and wells in which there is complete block of hERG channels with a well-known positive standard (10 μM dofetilide).

In series [2] the target is T2, MCH receptor (Homo sapiens, UniProt Q99705).
T2 construct: expressed in transfected cells; host or cells: CHO cells (membrane preparation)
T2 sequence (Q99705 whole entry): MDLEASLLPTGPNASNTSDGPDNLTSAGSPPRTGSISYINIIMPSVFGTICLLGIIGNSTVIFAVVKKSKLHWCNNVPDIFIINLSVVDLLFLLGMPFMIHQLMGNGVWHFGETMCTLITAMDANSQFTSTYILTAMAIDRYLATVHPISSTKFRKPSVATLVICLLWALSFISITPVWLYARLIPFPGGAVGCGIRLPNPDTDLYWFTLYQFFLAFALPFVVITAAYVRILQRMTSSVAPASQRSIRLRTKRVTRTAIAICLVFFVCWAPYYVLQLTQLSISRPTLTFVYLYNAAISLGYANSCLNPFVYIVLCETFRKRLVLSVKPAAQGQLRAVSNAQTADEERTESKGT
The series can be described thus: MCH receptor binding assay ([125I]-MCH, SPA). The note with it: membranes from CHO cells expressing the MCH receptor. The procedure: MCH Receptor Binding Assay:
Membranes from CHO cells expressing the MCH receptor were prepared by lysing cells with 5 mM HEPES for 15 min at 4 C. Cell lysates were centrifuged ([…], 15 min) and the pellet was re-suspended in 5 mM HEPES. For each 96-well plate (Microlite, Dynex Technologies), 1 mg of cell membranes were incubated with 10 mg of wheat germ agglutinin SPA beads (Amersham) for 5 min at 4 C in a volume of 10 ml of binding buffer (25 mM HEPES, 10 mM MGCl2, 10 mM NaCl, 5 mM MnCl2, 0.1% BSA). The membrane/bead mixture was centrifuged (1500×g, 3.5 min), the supernatant was aspirated, and the pellet was resuspended in 10 ml binding buffer. The centrifugation, aspiration and resuspension were then repeated. The membrane/bead mixture (100 μl) was then added to 96-well plates containing 50 μl of 500 pM [^125I]-MCH (NEN) and […] of the appropriate concentration of compound (4× the desired final concentration). Nonspecific binding was determined by including 1 μM MCH in the binding reaction. The binding reaction was incubated at room temperature for 2 h. Plates were then analyzed in a TOPCOUNT microplate scintillation counter (Packard). Data was analyzed and Ki values were determined using GraphPad Prism.

Each structure is given as a SMILES string. Like-named read-outs stand apart in the source and are kept apart here.

T1 sequence (Q12809 whole entry): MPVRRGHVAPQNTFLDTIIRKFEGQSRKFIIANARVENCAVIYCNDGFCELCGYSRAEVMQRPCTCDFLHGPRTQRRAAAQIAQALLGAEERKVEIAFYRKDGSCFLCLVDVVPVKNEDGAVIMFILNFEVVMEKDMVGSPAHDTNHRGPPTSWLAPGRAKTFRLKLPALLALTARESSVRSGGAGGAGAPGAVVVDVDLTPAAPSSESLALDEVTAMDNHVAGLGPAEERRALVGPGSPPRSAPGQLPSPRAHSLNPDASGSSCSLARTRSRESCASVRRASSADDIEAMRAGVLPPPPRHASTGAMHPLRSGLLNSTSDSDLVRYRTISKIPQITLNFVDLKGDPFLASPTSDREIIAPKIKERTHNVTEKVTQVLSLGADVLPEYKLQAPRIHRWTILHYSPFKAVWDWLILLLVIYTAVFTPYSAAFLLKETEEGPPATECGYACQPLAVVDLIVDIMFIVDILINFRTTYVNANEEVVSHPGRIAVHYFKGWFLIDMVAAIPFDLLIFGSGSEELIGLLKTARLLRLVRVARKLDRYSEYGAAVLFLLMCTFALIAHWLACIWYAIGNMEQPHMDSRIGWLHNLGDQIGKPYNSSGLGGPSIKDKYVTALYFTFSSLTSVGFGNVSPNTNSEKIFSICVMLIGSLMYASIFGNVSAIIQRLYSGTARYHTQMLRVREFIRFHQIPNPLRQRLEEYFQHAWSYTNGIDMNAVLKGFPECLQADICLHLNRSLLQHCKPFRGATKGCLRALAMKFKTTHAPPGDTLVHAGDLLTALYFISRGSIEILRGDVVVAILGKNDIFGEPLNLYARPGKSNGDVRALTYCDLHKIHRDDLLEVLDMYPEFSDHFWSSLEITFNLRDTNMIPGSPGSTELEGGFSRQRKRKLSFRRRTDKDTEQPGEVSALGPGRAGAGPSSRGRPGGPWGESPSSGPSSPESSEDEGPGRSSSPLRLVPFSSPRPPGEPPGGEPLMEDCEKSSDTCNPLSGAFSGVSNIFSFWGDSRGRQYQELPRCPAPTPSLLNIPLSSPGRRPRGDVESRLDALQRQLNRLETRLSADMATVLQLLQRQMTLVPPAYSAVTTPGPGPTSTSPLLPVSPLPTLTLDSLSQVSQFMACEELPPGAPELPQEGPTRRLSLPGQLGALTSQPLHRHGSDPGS

What is called Ki is the equilibrium dissociation constant of an inhibitor or competing ligand from its target. In the case of `NCc1ccc(C2=CCC(N(CCN3CCCC3)C(=O)Nc3ccc(F)c(Cl)c3)CC2)s1` (centres unmarked) [Example 1], in series [1], the “herg-Rb 1.5 μg/mL (%)” value is reported as 22% and the “herg-Rb 5 μg/mL (%)” value is given as 26%. The inhibition constant (Ki) in series [2] (read-out: Class (Ki)) was below 30 nM. Further, in series [2] (read-out: Ki), the Ki was 8 nM.

For the compound `NCc1ncc([C@]23CC[C@@H](N(CCCN4CC5CC4CN5)C(=O)Nc4ccc(F)c(C(F)(F)F)c4)C2C3)s1` (some centres unmarked) [Example 17], in series [1], the “herg-Rb 1.5 μg/mL (%)” value was determined as 0% and the “herg-Rb 5 μg/mL (%)” value is 14%. Also, the Ki in series [2] (read-out: Class (Ki)) was 30 to 100 nM.

As to `NCc1cnc(C2=CCC(N(CCN3CCCC3)C(=O)Nc3ccc(F)c(Cl)c3)CC2)s1` (centres unmarked) [Example 11], in series [1], the “herg-Rb 1.5 μg/mL (%)” value was determined as 9% and the “herg-Rb 5 μg/mL (%)” value was found to be 14%. For the same compound, the Ki in series [2] (read-out: Class (Ki)) was below 30 nM.

Turning to `NCc1ncc([C@]23CC[C@@H](N(CCCN4CC[C@@H](O)C4)C(=O)Nc4ccc(F)c(C(F)(F)F)c4)[C@H]2C3)s1` [Example 21], the Ki in series [2] (read-out: Class (Ki)) is below 30 nM.

For the compound `CNCc1ccc(C2=CCC(N(CCN3CCCC3)C(=O)Nc3ccc(F)c(Cl)c3)CC2)s1` (centres unmarked) [Example 6], the inhibitory constant (Ki) in series [2] (read-out: Class (Ki)) was below 30 nM.

In the case of `C[C@@H]1CN(CCCN(C(=O)Nc2cc(Cl)nc(Cl)c2)[C@@H]2CC[C@]3(c4cnc(CN)s4)CC23)[C@@H](C)CN1` (some centres unmarked) [Example 19], in series [1], the “herg-Rb 1.5 μg/mL (%)” value is −10% and the “herg-Rb 5 μg/mL (%)” value is 3%. The inhibitory constant (Ki) in series [2] (read-out: Class (Ki)) was below 30 nM.

For `NCc1ncc([C@]23CC[C@@H](N(CCN4CCCC4)C(=O)Nc4ccc(F)c(C(F)(F)F)c4)[C@H]2C3)s1` [Example 12], in series [1], the “herg-Rb 1.5 μg/mL (%)” value was determined as 13% and the “herg-Rb 5 μg/mL (%)” value is listed as 16%. In addition, the inhibition constant Ki in series [2] (read-out: Class (Ki)) was above 100 nM.

In the case of `O=C(Nc1ccc(F)c(Cl)c1)N(CCN1CCCC1)C1CC=C(c2ccc(CN3CCCC3)s2)CC1` (centres unmarked) [Example 4], in series [1], the “herg-Rb 1.5 μg/mL (%)” value is −1% and the “herg-Rb 5 μg/mL (%)” value is reported as 20%. Moreover, in series [2] (read-out: Class (Ki)), the inhibitory constant (Ki) was above 100 nM.

For `NCc1ncc([C@]23CC[C@@H](N(CCCN4CC[C@@H](O)C4)C(=O)Nc4ccc(F)c(C(F)(F)F)c4)C2C3)s1` (some centres unmarked) [Example 18], in series [1], the “herg-Rb 1.5 μg/mL (%)” value is −5% and the “herg-Rb 5 μg/mL (%)” value was −4%. Also, in series [2] (read-out: Class (Ki)), the Ki was below 30 nM.

Consider `NCc1ncc(C2=CCC(N(CCN3CCCC3)C(=O)Nc3ccc(F)c(Cl)c3)CC2)s1` (centres unmarked) [Example 7], for which, in series [1], the “herg-Rb 1.5 μg/mL (%)” value is listed as −1% and the “herg-Rb 5 μg/mL (%)” value was determined as 10%. Also, the inhibitory constant (Ki) in series [2] (read-out: Class (Ki)) was below 30 nM.

Take `NCc1ncc([C@]23CC[C@@H](N(CCN4CC[C@H](O)C4)C(=O)Nc4ccc(F)c(C(F)(F)F)c4)[C@H]2C3)s1` [Example 13]: in series [1], the “herg-Rb 1.5 μg/mL (%)” value is reported as 13% and the “herg-Rb 5 μg/mL (%)” value turned out to be 8%. Also, the Ki in series [2] (read-out: Class (Ki)) lay within 30 to 100 nM.

Turning to `NCc1ncc([C@@]23C[C@H](N(CCCN4CC[C@H](O)C4)C(=O)Nc4ccc(F)c(C(F)(F)F)c4)C[C@@H]2C3)s1` [Example 14], the Ki in series [2] (read-out: Class (Ki)) was above 100 nM.

As to `C[C@@H]1CN(CCCN(C(=O)Nc2ccc(F)c(C(F)(F)F)c2)[C@@H]2CC[C@]3(c4cnc(CN)s4)CC23)[C@@H](C)CN1` (some centres unmarked) [Example 16], in series [1], the “herg-Rb 1.5 μg/mL (%)” value is listed as −11% and the “herg-Rb 5 μg/mL (%)” value was −8%. For the same compound, the Ki in series [2] (read-out: Class (Ki)) is below 30 nM.

On to `CN(C)Cc1ccc(C2=CCC(N(CCN3CCCC3)C(=O)Nc3ccc(F)c(Cl)c3)CC2)s1` (centres unmarked) [Example 2], for which the Ki in series [2] (read-out: Class (Ki)) is above 100 nM.

Regarding `NCc1ncc([C@@]23CC[C@H](N(CCCN4CC[C@@H](O)C4)C(=O)Nc4ccc(F)c(C(F)(F)F)c4)[C@@H]2C3)s1` [Example 20], the Ki in series [2] (read-out: Class (Ki)) is above 100 nM.

With `NCc1ncc(C2=CCC(N(CCN3CCCC3)C(=O)Nc3ccc(F)c(C(F)(F)F)c3)CC2)s1` (centres unmarked) [Example 10], in series [1], the “herg-Rb 1.5 μg/mL (%)” value is recorded as 9% and the “herg-Rb 5 μg/mL (%)” value is given as 26%. Also, the Ki in series [2] (read-out: Class (Ki)) was below 30 nM.

Turning to `NCc1ncc([C@]23CC[C@@H](N(CCCN4CC[C@H](O)C4)C(=O)Nc4ccc(F)c(C(F)(F)F)c4)C2C3)s1` (some centres unmarked) [Example 15], in series [1], the “herg-Rb 1.5 μg/mL (%)” value is reported as −4% and the “herg-Rb 5 μg/mL (%)” value was −4%. Further, in series [2] (read-out: Class (Ki)), the Ki lay within 30 to 100 nM.

Take `O=C(Nc1ccc(F)c(Cl)c1)N(CCN1CCCC1)C1CC=C(c2ccc(CN3CCC3)s2)CC1` (centres unmarked) [Example 3]: in series [1], the “herg-Rb 1.5 μg/mL (%)” value is listed as −1% and the “herg-Rb 5 μg/mL (%)” value is 15%. The inhibition constant (Ki) in series [2] (read-out: Class (Ki)) is above 100 nM.

Take `CN(C)Cc1ncc(C2=CCC(N(CCN3CCCC3)C(=O)Nc3ccc(F)c(Cl)c3)CC2)s1` (centres unmarked) [Example 9]: the Ki in series [2] (read-out: Class (Ki)) was above 100 nM.

With `CN(C)Cc1ncc(C2=CCC(N(CCN3CCCC3)C(=O)Nc3ccc(F)c(C(F)(F)F)c3)CC2)s1` (centres unmarked) [Example 8], the inhibitory constant (Ki) in series [2] (read-out: Class (Ki)) was above 100 nM.

For `O=C(Nc1ccc(F)c(Cl)c1)N(CCN1CCCC1)C1CC=C(c2ccc(CN3CC[C@H](O)C3)s2)CC1` (some centres unmarked) [Example 5], in series [1], the “herg-Rb 1.5 μg/mL (%)” value worked out at 0% and the “herg-Rb 5 μg/mL (%)” value stood at 6%. In series [2] (read-out: Class (Ki)), the Ki lay within 30 to 100 nM.

For the origin of these results see US7361769B2, “Heterocyclyls as selective melanin concentrating hormone receptor antagonists for the treatment of obesity and related disorders” (Schering Corporation, priority 2004, dated 2008).
